This note sets out measurements from ChEMBL document CHEMBL1201862, “PubChem BioAssay data set” (2004).

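The compound was tested at five concentrations on cells cultured in 96-well plates, with a 48-hour exposure period. Here, GI50 denotes the concentration required for 50% inhibition of growth.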 The source made the active and inactive calls. Cut-off read from the data, not from the text of the source: active = GI50 up to about 1.1 µM and inactive = higher.

Some test systems named below: 786-0; CCRF-CEM; COLO 205; EKVX; HL-60; HOP-62; HOP-92; KM-20L2; KM12; MDA-N; NCI-H460; OVCAR-3; SF-268; SF-539; SNB-75; T47D; UACC-257; UACC-62; LOX IMVI; RXF 393.
Test in all cases: NCI tumour cell line growth inhibition, 48 h

Consider `CN1CCN(CCn2c3c4ccccc4ccc3c3oc(=O)c4ccccc4c32)CC1`, for which the GI50 in the assay with 786-0 was 1730 nM (inactive); with CCRF-CEM it was 1560 nM (inactive); with COLO 205, 1800 nM (inactive); with EKVX, 12700 nM (inactive); in the assay on HL-60, 2150 nM (inactive); with HOP-62 it was 2070 nM (inactive). The GI50 in the assay on HOP-92 was 5850 nM (inactive); in the assay with KM-20L2 it was 2580 nM (inactive); in the assay with KM12, 2420 nM (inactive); in the assay with MDA-N, 1560 nM (inactive); in the assay with NCI-H460, 1990 nM (inactive); with OVCAR-3, 10600 nM (inactive). Moreover, the GI50 was 6000 nM (inactive) in the assay on SF-268; 1650 nM (inactive) in the assay with SF-539; 4370 nM (inactive) in the assay on SNB-75; > 10000 nM (inactive) in the assay on T47D; 1560 nM (inactive) in the assay with UACC-257; 3560 nM (inactive) in the assay on UACC-62.

Regarding `C=C1C(=O)OC2C(C)C3C=CC(=O)[C@@]3(C)C(OC(=O)/C(C)=C/C)C1[C@@H]2OC(C)=O` (stereo partly drawn), the GI50 in the assay with 786-0 was 231 nM (active); with CCRF-CEM, 220 nM (active); in the assay with COLO 205, 333 nM (active); in the assay with EKVX it was 551 nM (active); with HL-60, 327 nM (active); with HOP-62, 1250 nM (inactive). In addition, the GI50 is 551 nM (active) with HOP-92; 1510 nM (inactive) in the assay on KM-20L2; 1460 nM (inactive) with KM12; 243 nM (active) with LOX IMVI; 252 nM (active) with MDA-N; 300 nM (active) in the assay on NCI-H460. In addition, the GI50 was 260 nM (active) with OVCAR-3; 215 nM (active) with RXF 393; 673 nM (active) with SF-268; 333 nM (active) in the assay with SF-539; 1100 nM (active) with SNB-75; 336 nM (active) with T47D. The GI50 with UACC-257 was 641 nM (active); in the assay with UACC-62 it was 344 nM (active).
